Test results taken from PMC10291556 (Journal of Medicinal Chemistry, 2023).

Legend:
HeLa cells [1] = test: Cellular accumulation of platinum (ICP-MS); format: cell-based, human; conditions: for cellular uptake 0.1 μM/24 h: 0.1 μM complex; for cellular uptake 1 μM/6 h: 1 μM complex; for cellular uptake 10 μM/6 h: 10 μM complex; for cellular uptake relative to Pt(IV) complex 2: Table 3
Procedure: Briefly, 3 × 10^6 cells were seeded in 100 mm culture dishes and grown overnight. The cells were exposed to the tested complexes at indicated concentrations for indicated periods. […] The pellets were digested using the microwave acid (HCl) digestion system (CEM Mars). The platinum quantity taken up by the cells was determined by inductively coupled plasma mass spectrometry (ICP–MS). All experiments were performed in triplicate.

[2] = system: DNA isolated from HeLa cells; test: Pt associated with DNA isolated from treated HeLa cells; format: cell-based, human; conditions: 1 µM compound, 6 h, mean ± SD
Description: page 16: Table S1: […] concentration of tested compounds for 6 ha. […] Figure S19: A. Representative histograms obtained by flow cytometric analysis of calreticulin exposure in HeLa cells treated with indicated compounds. B. An example of gating DAPI negative population. Only DAPI-negative cells were taken for the evaluation.

tubulin in HeLa cells = test: Western blotting of tubulin; format: cell-based, human; conditions: 24 h, 0.25× or 0.5× IC50,72h, Western blot
Procedure: Figure 2 Western blotting analyses of tubulin in protein extract from HeLa cells treated with the investigated Pt complexes. (A) Representative membranes. […] Proteins from control, untreated cells were loaded to lane C. (B) Quantitative data evaluation; bars represent mean ± SD from two independent experiments.
HeLa cells were seeded in 60 mm dishes at a density of 3 × 10^5 cells/dish and cultured for 20 h. The cells were then treated with the tested compounds at concentrations indicated in the text. After 24 h of treatment, the cells were scraped, washed, and pelleted. […] After transferring to the polyvinylidene fluoride membrane, the proteins were detected using appropriate antibodies: anti-GAPDH antibody (mouse, Sigma-Aldrich), Anti-COX-2 (rabbit, Abcam), Anti-α-, β-, or γ-tubulin (all rabbit, Abcam), Anti-β-actin (mouse, Abcam), Goat Anti-Rabbit IgG(HRP) (Abcam; HRP = horseradish peroxidase), and Goat Anti-Mouse IgG(HRP) (ThermoFisher Scientific). SignalFire ECL Reagent (A + B) was used as a substrate for HRP, and the luminescence was recorded with Amersham Imager 680. The densities in the images were assessed with the Aida image analysis software.

HeLa cells [3] = test: Mitochondrial membrane potential (TMRE, flow cytometry); format: cell-based, human; conditions: 10× IC50, 1 h, vs untreated control
Procedure: Figure 4 Changes in the mitochondrial membrane potential Δψm in HeLa cells. The cells were treated with Pt compounds at the concentrations corresponding to 10× IC50 for 1 h and subsequently stained with TMRE. The fluorescence was measured by flow cytometry. Data represents mean ± SD from three independent experiments, *p < 0.01.
HeLa cells were seeded (6-well plates, 3 × 10^5 cells/well), grown overnight, and then treated with the tested compounds for 1 h. The medium was removed, and a fresh medium containing TMRE (Thermo Fisher Scientific) at a final concentration of […] in 500 μL was added. The cells were incubated for 30 min at 37 °C and then harvested using trypsin. TMRE fluorescence was measured with a fluorescence-activated cell sorting (FACS) Verse flow cytometer (Becton Dickinson), and the data were analyzed using the ModFit LT 4.1 (Verity Software House) software. The experiment was performed in triplicate.

[4] = Partition coefficient, shake-flask method; format: physicochemical; conditions: octanol/water
Procedure: The “shake flask” method was used to measure the partition coefficients (P) of platinum compounds. The compounds were dissolved in octanol-saturated water (OSW) containing 200 mM NaCl. […] After careful separation of the layers with a fine-tip pipet, the Pt content in individual phases was determined by flameless atomic absorption spectrometry. The partition coefficients were calculated as the concentration ratio of the compound in the octanol layer to that in the aqueous layer, log P = log([Pt]WSO/[Pt]OSW).

HeLa cells [5] = test: Wound healing assay; format: cell-based, human; conditions: 24 h, multiples of IC50,72h
Procedure: Figure 7 (A–E) Wound healing assay. The monolayer of HeLa cells was scratched with a 10 μL tip, and a starving medium containing the tested complexes was added. The shots were taken at times 0 and 24 h. (A) Control, non-treated cells; (B) cells treated with complex 3; (C) cells treated with complex 4. […] (E) Evaluation of wound healing assay. Bars represent gap size vs. Control (100%), following a 24 h incubation with the investigated compounds. Light gray bars: complex 3; dark gray bars: complex 4; black bar: complex 2. (F) Re-adhesion assay. […] Following trypsinization, the cells were resuspended in Dulbecco’s modified Eagle medium (DMEM), counted, left to reconstitute adhesive membrane proteins for 30 min, and re-seeded at the density of 3× 10^4 cells/100 μL/well. After 30 min of incubation at 37 °C, the re-adhesion activity was determined as described in the Experimental Section. Data represents mean ± SD, n = 8; *p < 0.05, **p < 0.01, ***p < 0.001.
HeLa cells were grown close to confluence in 6-well plates in a complete medium, and then the medium was replaced with a serum-free medium [supplemented with 0.1% bovine serum albumin (BSA)], and the cells were incubated for an additional 24 h. The HeLa monolayers were scratched with a 10 μL pipet tip, and the cells were washed twice with PBS to remove peeled cells and treated with tested compounds at indicated concentrations. The scratched areas were shot immediately after the complex addition and then after 24 h with a Canon EOS 1200D camera attached to an Olympus CKX41 inverted microscope with a 10×/0.25 phase contrast objective. Digital images were taken by the QuickPHOTO MICRO 3.1 program (PROMICRA, Prague, Czech Republic) and processed with the TScratch analysis software (ETH Zürich, Switzerland). The cell’s ability to migrate into the open area was expressed as a percentage of control.

MRC-5 = test: MTT assay in non-cancerous fibroblasts, 72 h; format: cell-based; conditions: non-cancerous human fibroblasts, 72 h incubation, mean ± SD
Procedure: Cells were treated with the tested compounds in a final volume of 200 μL/well. […] Calbiochem, Darmstadt, Germany) was added, and the cells were incubated for an additional 2–4 h. The medium was removed, and the insoluble formazan product was dissolved in 100 μL/well DMSO. […] The read values were converted to the percentage of control. […] All experiments were made in triplicate.

HeLa cells [6] = test: Lactate production; format: cell-based, human; conditions: 6 h, 5× IC50, free DCF at concentrations 380–770 times higher
Procedure: Figure 3 (A) Lactate production. Relative lactate concentration in medium following a 6 h treatment of HeLa cells with the investigated compounds at concentrations corresponding to 5× IC50. […] Data represents mean ± SD, n = 2–4; asterisks indicate a statistically significant difference from the untreated control (*p < 0.01, **p < 0.005, ***, ***p < 0.001).
HeLa cells were seeded (1 × 10^5 cells/well) and grown in 12-well plates, treated with platinum agents, and diclofenac for 6 h. Lactate concentration in the culture medium was measured using a colorimetric Lactate Assay Kit (Sigma-Aldrich) following the manufacturer’s instructions. […] The amount of lactate in individual samples was determined from a standard curve and expressed as a percentage of non-treated control.

Compound	cellular uptake 0.1 μM/24 h (HeLa cells [1])	cellular uptake 1 μM/6 h (HeLa cells [1])	cellular uptake 10 μM/6 h (HeLa cells [1])	cellular uptake relative to Pt(IV) complex 2 (HeLa cells [1])	amount of Pt associated with DNA [2]	reduction of the amount of tubulin in cell extracts (tubulin in HeLa cells)	mitochondrial membrane potential Δψm (TMRE fluorescence) (HeLa cells [3])	log P [4]	migration activity (wound closing) (HeLa cells [5])	IC50 (MRC-5)	lactate excreted into media (HeLa cells [6])
Cc1c(C)c2c3c4c1=CC=C[N]4[Pt][N]3C=CC=2.NCCNC(=O)Cc1ccccc1Nc1c(Cl)cccc1Cl.NCCNC(=O)Cc1ccccc1Nc1c(Cl)cccc1Cl.N[C@H]1CCCC[C@@H]1N [complex 4, Pt^IV56MeSS(DCF)2]	3.9 ± 0.3 ng Pt/10^6 cells	11 ± 2 ng Pt/10^6 cells	82 ± 7 ng Pt/10^6 cells	1.7–1.8 fold	4.6 ± 0.3 pg Pt/µg DNA	higher potency of the two complexes to reduce the amount of tubulin	significant (p < 0.01) decrease in TMRE fluorescence	–1.4 ± 0.1	reduced the ability of HeLa cells to close artificial wounds	320 ± 80 nM	considerably reduced
Cc1c(C)c2c3c4c1=CC=C[N]4[Pt]([Cl])[N]3C=CC=2.NCCNC(=O)Cc1ccccc1Nc1c(Cl)cccc1Cl.N[C@H]1CCCC[C@@H]1N [complex 3, Pt(IV)56MESSenDCFCl]	3.6 ± 0.2 ng Pt/10^6 cells	9.6 ± 0.8 ng Pt/10^6 cells	61 ± 8 ng Pt/10^6 cells	1.3–1.6 fold	2.3 ± 0.2 pg Pt/µg DNA	higher potency of the two complexes to reduce the amount of tubulin	significant (p < 0.01) decrease in TMRE fluorescence	–1.7 ± 0.1	reduced the ability of HeLa cells to close artificial wounds	700 ± 100 nM	considerably reduced
